Results: patent publication US4424218A, “Novel 3 α-amino steroids” (Roussel Uclaf, priority 1979, dated 1984)
Where a name gives a salt, the structure may show the parent alone. Read-outs that look alike come from different tables or passages of the source.

Columns and labels:
anaphylactic shock = assay: Adjuvant for anaphylactic shock (beef seric albumin); format: in vivo, mice; conditions: intraplantary, admixed with antigen; antigen intravenously 8 days later
Excerpt: C. Adjuvant for anaphylactic shock
The administration to animals of a compound capable of stimulating the activity of immunitary systems leads to an increase in response to administration of antigen to which the animal is sensitive. Male mice weighing between 30 to 35 g were sensitized by intraplantary administration of beef seric albumin. 8 days later, the mice received intraveinously an antigen and under the minimum sensibilization conditions, the control animals were not in mortal shock at the time of the last administration.
The active dose which provoked a mortality equal to or greater than 50% of the animals was determined and the results are reported in Table I.

[1] = test system: rosettes to sheep red corpuscles; assay: Test of Rosettes to sheep red corpuscles; format: in vivo, rats; conditions: Rattus norvegicus, po, 24 h, read-out: immunostimulating dose which multiplied by 2 the percentage of rosettes observed in the control animals
Excerpt: D. Test of Rosettes to sheep red corpuscles
The administration to animals of a product capable of stimulating the immunitary systems leads to an increase of their capacity of reaction to the injection of an immunogenic product. 3 month old male rats were sensibilized by intraperitoneal administration of sheep erythrocytoes on day 0 and 7 days later, the spleen was removed and splenocytes were placed in contact with sheep erythrocytes. The percentage of leucocytes around the erythrocytes in the form of rosettes was determined. The test compounds were orally administered daily from day-1 to day 1 and immunostimulating dose is the dose of product which multiplied by 2 the percentage of rosettes observed in the control animals and the results are reported in Table II.

mice = assay: Acute toxicity; format: in vivo; conditions: orally
IgE production = assay: Potentialization of IgE production (passive cutaneous anaphylaxia test); format: in vivo, mice; conditions: for minimal effective dose: Mus musculus, sc, read-out: active dose, potentialization of IgE production
Procedure: A. Potentialization of IgE production
Female mice weighing between 28 to 30 g were immunized by subcutaneous administration of an ovalbumin-alumina mixture on days 0 and 14 and serum was taken on the 21st day for dosage of IgE antibodies formed. The respective quantities of antigen (ovalbumin) and adjuvant (alumina) injected was selected so as to keep production of antibodies at a minimum. The test compounds were administered subcutaneously 3 hours before the first immunization.
The research of the larger dilution of serum which gives a spot of a 11 to 13 mm diameter for each animal is made. An adequate dilution of serum was injected intradermally with a volume of 0.1 ml in male rats weighing about 250 g in the region of the back. 48 hours later, the animals received veinously 0.5 ml of a solution of 0.5% of ovalbumin and 1% of Evans blue in an isotonic solution of sodium chloride. 30 minutes after this injection, the animals were killed by exsanguination and the diameter of the blue spot on turned over skin is measured.

secondary arthritis = assay: Adjuvant for chronic arthritis (Freund type adjuvant); format: in vivo, rat; conditions: for ED50: Rattus norvegicus, read-out: active dose which diminished the secondary inflammation by at least 50%
Procedure: B. Adjuvant for chronic arthritis
The injection of a Freund type adjuvant (Mycobacterium butyricum at 6 mg/ml in Bayol 55) into the posterium paw of a rat provokes a primary inflammatory lesion and then after a latency period of 13 to 15 days, initiation of secondary inflammation affecting the other non-injected rear paw as well as the front paws, the ears and the tail.
Male rats aged 42 to 50 days received an intraplantary injection of 0.10 ml of Freund adjuvant and treatment started the day of the adjuvant injection and continued until the animals were killed on the 17th day. […] In this test, the effect on secondary inflammations was essentially observed, it was determined by the arthritis of the non-injected rear paw, arthritis of the front paws and the inflammation of the ears and tail.

[2] = orally, daily from day -1 to day 1

SMILES | active dose which provoked a mortality equal to or greater than 50% of the animals (anaphylactic shock) [mg per animal] | ED (2-fold rosettes) [1, 2] [mg/kg] | DL0 (lethal dose LD0, maximum dose which did not cause any mortality after 8 days) (mice) [mg/kg] | also measured
C[C@H](N)C(=O)N[C@@H]1CC[C@@]2(C)[C@@H](CC[C@@H]3[C@@H]2CC[C@]2(C)[C@@H]([C@H](C)O)CC[C@@H]32)C1 [Example 2, (2S) 2-amino-N-[(20S)-5α-pregnan-20-ol-3α-yl]-propanamide] | 0.5 | 1 | 200 | 
C[C@H](O)[C@H]1CC[C@H]2[C@@H]3CC[C@H]4C[C@H](NC(=O)[C@@H](N)CCC(=O)O)CC[C@]4(C)[C@H]3CC[C@]12C [Example 3] | ≤ 1 |  | ≥ 400 | 
C[C@H](O)[C@H]1CC[C@H]2[C@@H]3CC[C@H]4C[C@H](NC(=O)[C@@H](N)CO)CC[C@]4(C)[C@H]3CC[C@]12C [Example 4] |  |  | ≥ 400 | 
C[C@H](O)[C@H]1CC[C@H]2[C@@H]3CC[C@H]4C[C@H](NC(=O)[C@@H](N)Cc5ccccc5)CC[C@]4(C)[C@H]3CC[C@]12C [Example 5] | 5 |  | ≥ 400 | 
C[C@H](O)[C@H]1CC[C@H]2[C@@H]3CC[C@H]4C[C@H](NC(=O)[C@@H](N)Cc5c[nH]c6ccccc56)CC[C@]4(C)[C@H]3CC[C@]12C [Example 6, (2S) 2-amino-N-[(20S) 5α-pregnane-20-ol-3α-yl]-1H-indol-3-propanamide] | 5 | 2 | ≥ 1000 | 
C[C@H](O)[C@H]1CC[C@H]2[C@@H]3CC[C@H]4C[C@H](NC(=O)[C@@H]5CCCN5)CC[C@]4(C)[C@H]3CC[C@]12C [Example 7] | 2 | > 5 | ≥ 800 | 
C[C@H](O)[C@H]1CC[C@H]2[C@@H]3CC[C@H]4C[C@H](NC(=O)CNC(=O)CN)CC[C@]4(C)[C@H]3CC[C@]12C [Example 8] | 1 |  | ≥ 400 | 
C[C@H](O)[C@H]1CC[C@H]2[C@@H]3CC[C@H]4C[C@H](NC(=O)c5cccnc5)CC[C@]4(C)[C@H]3CC[C@]12C [Example 9, N-[(20S)5α-pregnan-20-ol-3α-yl]-3-pyridinecarboxamide] | 5 | 5 |  | 
C[C@H](O)[C@@]1(O)CC[C@H]2[C@@H]3CC[C@H]4C[C@H](NC(=O)CN)CC[C@]4(C)[C@H]3CC[C@@]21C [Example 10, 2-amino-N-[(20S) 5α-pregnane-17α,20-diol-3α-yl]-acetamide hydrochloride] | 1 |  | ≥ 600 | 
C[C@H](O)[C@H]1CC[C@H]2[C@@H]3CC[C@H]4C[C@H](NC(=O)CN)CC[C@@H]4[C@H]3CC[C@]12C [Example 11, 2-amino-N-[(20S) 19-nor-5α-pregnane-20-ol-3α-yl]-acetamide hydrochloride] | 0.5 | 5 | ≥ 400 | 
CC(=O)[C@@]1(O)CC[C@H]2[C@@H]3CC[C@H]4C[C@H](NC(=O)CN)CC[C@]4(C)[C@H]3CC[C@@]21C [Example 12, 2-amino-N-[(5α-pregnane-17α-ol-20-one-3α-yl]-acetamide hydrochloride] |  | 5 |  | 
CCOC(=O)N[C@@H]1CC[C@@]2(C)[C@@H](CC[C@@H]3[C@@H]2CC[C@]2(C)[C@@H]([C@H](C)O)CC[C@@H]32)C1 [Example 14, Ethyl N-[(20S)5α-pregnane-20-ol-3α-yl]-carbamate] | 5 |  | ≥ 400 | 
C[C@H](O)[C@H]1CC[C@H]2[C@@H]3CC[C@H]4C[C@H](N(C)C(=O)CN)CC[C@]4(C)[C@H]3CC[C@]12C.Cl [Example 15, 2-amino-N-[(20S) 5α-pregnane-20-ol-3α-yl]-N-methyl-acetamide hydrochloride] | 0.5 |  | ≥ 200 | ED (2-fold rosettes) [1]: 10 mg/kg
c1ccc([C@H]2CN3CCSC3=N2)cc1 [Levamisole, reference compound] |  |  |  | minimal effective dose (IgE production; subcutaneous, 3 hours before first immunization, ovalbumin-alumina): 20 mg/kg; ED50 (secondary arthritis; po, orally, treatment from day of adjuvant injection to 17th day): 50 mg/kg
C[C@H](O)[C@H]1CC[C@H]2[C@@H]3CC[C@H]4C[C@H](NC(=O)CN)CC[C@]4(C)[C@H]3CC[C@]12C.Cl [Product A, (20S) 3α-[(aminoacetyl)-amino]-5α-pregnane-20-ol hydrochloride] |  |  |  | minimal effective dose (IgE production): 0.5 mg/kg; immunostimulating activity in IgE test (in words) (IgE production; subcutaneous, compared with Levamisole): greater immunostimulating activity than Levamisole; ED50 (secondary arthritis; sc): 1 mg/kg; activity against secondary phenomena of arthritis of adjuvant (in words) (secondary arthritis; subcutaneously, compared with Levamisole): very active against secondary phenomena of arthritis of adjuvant
